{"source": "patent US20240358782A1", "about": "“Regulatory Composition of the Neuro-Immune-Endocrine and Cortisol Reducing System of the Human Being” (priority 2020, published 2024)", "key": {"[1]": {"test_system": "chorio-allantoic membrane of hen embryonated egg", "text": "The first step was to evaluate the cytotoxicity of the composition in a chicken embryonated egg chorio-allantoic membrane (HET-CAM) assay (FIG. 1)."}, "monoamine oxidase (MAO)": {"test_system": "monoamine oxidase (MAO)", "conditions": "in vitro; cited from earlier work"}, "male Wistar rats [2]": {"test_system": "male Wistar rats", "test": "Serum redox state markers after 10 days of oral treatment (Example 1, Phase 1)", "type": "in vivo, rat", "conditions": "oral daily 10 days, dose 257 ml/kgPV, mean ± standard error", "experimental": "(§1) In Phase 1, the experiment consisted of providing the same amount (in mg), per kg of live weight (mg/kg BW), of each of the components of the composition of this invention, as well as the same amount of the composition, and comparing the effects with that of control animals, which received placebo or the antibiotic Enramycin. After 10 days, an evaluation of the immune system of the […] of each of the groups was carried out.\n(§2) In this way, different groups of male Wistar rats were randomly marked on the tails for identification. The animals were adapted to the laboratory environment for one week before the treatments. Initially, after a 6 h fasting period, the body weight of the animals was determined and the dose of the Composition and Enramycin […] were calculated. The animals were divided into 11 (eleven) groups of 10 (ten) individuals. The animals were treated daily, orally (used in the animals used as reference), with placebo (vehicle; filtered water 1 mL/kg BW) or with FOS Ingredion (257 mg/kg BW), FOS Yes (257 mg/kg BW) kgPV), GOS Yes (257 mg/kgPV), Yes MOS (257 mg/kgPV), Yes GlucanMOS (257 mg/kgPV), Glucangold Yes (77 mg/kgPV), Mixture 1 (FOS Yes+GOS Yes) (257 mg/kgPV), Composition of this invention (GlucanGold Yes+GOS Yes+FOS Yes, containing 20% of 1,3 and 1,6 beta-glucans, 29% of GOS and 31% of FOS by mass on total mass %) ([…]). An experimental group called naive underwent simulated gavage (without any treatment). All the animals that composed the different experimental groups received the treatment for 10 days. At the end of the experiments, and before euthanasia, the animals were fasted for 6 hours with free access to water. Final body weight was recorded to calculate relative organ weight. Then, under anesthesia with isoflurane (2-3%), 5 mL of blood was obtained from the left jugular vein for the evaluation of biochemical parameters. After this procedure, the animals were euthanized with a supra-pharmacological dose of isoflurane (10-15%) in a saturation chamber. […]"}, "male Wistar rats [3]": {"test_system": "male Wistar rats", "test": "Tissue levels of lipoperoxides (LPO) after 10 days of oral treatment (Example 1, Phase 1)", "type": "in vivo, rat", "conditions": "oral daily 10 days, mean ± standard error"}, "male Wistar rats [4]": {"test_system": "male Wistar rats", "test": "Serum IL-10, IL-6 and TNF-alpha after 10 days of oral treatment (Example 1, Phase 1)", "type": "in vivo, rat", "conditions": "oral daily 10 days, dose 257 mg/kgPV (Enramicine 96 mg/kgPV), mean ± standard error", "experimental": "as §1, §2"}, "[5]": {"test_system": "Salmonella enterica serovar Enteritidis (phagetype PT4)", "test": "Salmonella challenge: deaths and serum cytokines (Example 1, phase 2)", "type": "in vivo, rat", "conditions": "oral treatment 20 days, dose 257 mg/kgPV (Enramicine 96 mg/kgPV)", "text": "In phase 2, the experiment consisted of repeating the treatments of Phase 1, for 10 days, and inoculating the groups, except the so-called naive (negative control), with a high dose of Salmonella enteritidis. After 20 days, the mortality and the behavior of the immune system of the rats of each group were observed.\nIn this way, different groups of male rats were randomly marked on the tails for identification. The animals were adapted to the laboratory environment for one week before the beginning of the experiments. After a 6 h fasting period, the animals' body weight was determined and the dose of the prebiotics, the composition of this invention and Enramycin were calculated. The animals were divided into 11 (eleven) groups of 10 (ten) individuals. The animals were treated daily, by the oral route (used in the animals used as reference), with placebo (vehicle; filtered water 1 mL/kg BW) or with FOS ingredion (257 mg/kg BW), FOS Yes (257 mg/kg BW). kgPV), GOS Yes (257 mg/kgPV), Yes MOS (257 mg/kgPV), GlucanMOS (257 mg/kgPV), Glucangold Yes (77 mg/kgPV), Mixture 1 (FOS Yes+GOS Yes) (257 mg/kgPV), Composition of this invention (GlucanGold Yes+GOS Yes+FOS Yes, containing 20% of 1,3 and 1,6 beta-glucans, 31% of GOS and 29% of FOS by mass on mass %) ([…]). All treatments were performed for 20 days. After 10 days from the beginning of treatments, the aforementioned groups received a challenge with 1 mL (10^8 colony forming units [cfu]/mL) of a strain of Salmonella enterica serovar Enteritidis (phagetype PT4), orally (gavage).\nAn experimental group called naive underwent sham gavage (no treatment) and was not infected with any bacterial strain. At the end of the experiments, and before euthanasia, the surviving animals were fasted for 6 hours with free access to water. Then, under anesthesia with isoflurane (2-3%), 5 mL of blood was obtained from the left jugular vein for the evaluation of biochemical parameters. After this procedure, the animals were euthanized with a supra-pharmacological dose of isoflurane (10-15%) in a saturation chamber. Immediately after euthanasia, target organs were removed for analysis.\nTable 8, below, indicates the effects of treatments with different isolated components, with the Composition according to the invention, or with Enramincin, on the serum levels of interleukin 10 (IL-10), IL-6 and tumor necrosis factor alpha (TNF-alpha) from male Wistar rats infected with Salmonella enterica."}, "[6]": {"conditions": "dose 257 mg/kgPV (Enramicine 96 mg/kgPV)"}, "[7]": {"conditions": "dose 257 ml/kgPV (Enramicine 96 ml/kgPV)"}, "[8]": {"conditions": "serum, Salmonella-infected male Wistar rats, mean ± standard error"}}, "note": "Marks after values point to notes of the source that are not given here.", "data": [{"compound": "[Na+].[OH-]", "note": "[NAOH, Sodium Hydroxide]", "values": [{"measurement": "hemorrhagic (cytotoxic) effect / irritation on chorio-allantoic membrane", "setting": "[1]", "result": "lyse blood vessels, resulting in hemorrhage"}]}, {"compound": "COc1cc(C2Oc3cc([C@H]4Oc5cc(O)cc(O)c5C(=O)[C@@H]4O)ccc3OC2CO)ccc1O", "note": "(stereo partly drawn) [siliinin]", "values": [{"measurement": "inhibition of monoamine oxidase (MAO) activity", "setting": "monoamine oxidase (MAO)", "result": "inhibits the activity of monoamine oxidase (MAO)"}]}, {"compound": "Enramycin [Enramicine]", "values": [{"measurement": "Malondialdehyde", "setting": "male Wistar rats [2]", "result": "2.1 ± 0.15", "unit": "mmol/L"}, {"measurement": "Nitrite", "setting": "male Wistar rats [2]", "result": "45.3 ± 5.51", "unit": "%"}, {"measurement": "Nitrotirosine", "setting": "male Wistar rats [2]", "result": "0.007 ± 0.003", "unit": "µmol/L"}, {"measurement": "LPO, Kidneys", "setting": "male Wistar rats [3]; [6]", "result": "119.4 ± 7.1 U/mg of protein"}, {"measurement": "LPO, Liver", "setting": "male Wistar rats [3]; [6]", "result": "170.1 ± 14.1 U/mg of protein"}, {"measurement": "LPO, Spleen", "setting": "male Wistar rats [3]; [6]", "result": "117.5 ± 10.1 U/mg of protein"}, {"measurement": "tissue lipoperoxides (LPO), Cecum", "setting": "male Wistar rats [3]; [7]", "result": "170.2 ± 10.0"}, {"measurement": "tissue lipoperoxides (LPO), Colon", "setting": "male Wistar rats [3]; [7]", "result": "230.2 ± 11.2"}, {"measurement": "tissue lipoperoxides (LPO), Ileum", "setting": "male Wistar rats [3]; [7]", "result": "117.9 ± 14.2"}, {"measurement": "IL-6", "setting": "male Wistar rats [4]", "result": "210.5 ± 25.5", "unit": "pg/mL"}, {"measurement": "IL-10", "setting": "male Wistar rats [4]", "result": "15.3 ± 5.1", "unit": "pg/mL"}, {"measurement": "TFN-alfa", "setting": "male Wistar rats [4]", "result": "8.0 ± 1.5", "unit": "pg/mL"}, {"measurement": "Deaths", "setting": "[5]; male Wistar rats, Salmonella enterica challenge (1 mL, 10^8 cfu/mL) after 10 days", "result": 0, "unit": "%"}, {"measurement": "IL-6", "setting": "[5]; [8]", "result": "249.7 ± 37.7", "unit": "pg/mL"}, {"measurement": "IL-10", "setting": "[5]; [8]", "result": "16.6 ± 0.9^b pg/ml"}, {"measurement": "TFN-alfa", "setting": "[5]; [8]", "result": "10.7 ± 1.1^b pg/ml"}]}]}
